The results in this text go back to ChEMBL document CHEMBL4680220, “Synthesis and biological evaluation of acridine-based histone deacetylase inhibitors as multitarget agents against Alzheimer's disease” (Eur J Med Chem, 2020).

Usually pIC50 stands for the IC50 on a negative log10 scale, so that one unit is a factor of ten.

SMILES strings stand for the structures. pIC50: −log10 of the molar value.

This assay deals with T1, Histone deacetylase 7 (Homo sapiens, UniProt Q8WUI4).
T1 sequence (Q8WUI4 whole entry): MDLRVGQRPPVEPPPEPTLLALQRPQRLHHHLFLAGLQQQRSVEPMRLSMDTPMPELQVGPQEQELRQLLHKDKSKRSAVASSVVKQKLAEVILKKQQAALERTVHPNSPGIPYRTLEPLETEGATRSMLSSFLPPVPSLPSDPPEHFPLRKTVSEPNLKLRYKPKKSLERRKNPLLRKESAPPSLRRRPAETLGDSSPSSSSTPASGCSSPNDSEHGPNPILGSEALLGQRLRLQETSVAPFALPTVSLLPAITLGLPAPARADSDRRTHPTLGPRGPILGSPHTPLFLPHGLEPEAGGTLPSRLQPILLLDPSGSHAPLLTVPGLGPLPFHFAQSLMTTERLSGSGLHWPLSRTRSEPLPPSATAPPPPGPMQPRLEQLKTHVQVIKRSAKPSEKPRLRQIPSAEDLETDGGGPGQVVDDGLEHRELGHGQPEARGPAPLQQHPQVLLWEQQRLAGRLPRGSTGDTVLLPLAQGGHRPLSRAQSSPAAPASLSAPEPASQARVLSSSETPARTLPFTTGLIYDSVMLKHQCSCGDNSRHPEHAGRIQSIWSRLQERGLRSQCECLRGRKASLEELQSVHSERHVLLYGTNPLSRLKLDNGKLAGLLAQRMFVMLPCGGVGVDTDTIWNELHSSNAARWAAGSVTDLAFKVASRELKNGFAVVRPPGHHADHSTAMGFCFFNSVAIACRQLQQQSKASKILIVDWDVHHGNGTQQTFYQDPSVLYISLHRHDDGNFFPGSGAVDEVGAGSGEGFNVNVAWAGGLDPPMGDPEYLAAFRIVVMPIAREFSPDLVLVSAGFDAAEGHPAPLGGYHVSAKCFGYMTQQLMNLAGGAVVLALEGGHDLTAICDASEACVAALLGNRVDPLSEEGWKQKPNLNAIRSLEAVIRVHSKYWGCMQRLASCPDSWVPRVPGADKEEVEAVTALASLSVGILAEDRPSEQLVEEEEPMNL
Nature of the assay: Inhibition of recombinant human N-terminal GST-tagged HDAC7 (518 to end residues) expressed in baculovirus infected Sf9 cells using fluorogenic HDAC 2A substrate preincubated for 5 mins followed by substrate addition and measured after 30 mins by fluorescence assay.

Turning to `O=C(NO)c1ccc(Nc2c3ccccc3nc3ccc(Br)cc23)cc1`, the pIC50 was 5.04.
